Data published in patent US20260217702A1, “NOVEL IMIDAZOQUINOLINES WITH IMMUNOSTIMULATORY EFFECTS” (Synovo GmbH, priority 2022, published 2026).

Experiments:
IFNa relative to TNFa = experiment: Stimulation of cytokines in vivo (plasma cytokines, cytometric bead array); settings: female C57B6/J mice, i.p., 12 μmol/kg, citrate in saline, EDTA plasma at various times; reference Resiquimod
Description: Female C57B6/J mice ca 18-20g ca. 8 weeks old are treated i.p. with E1 or E13 (citrate in saline) at a dose of12 μmol/kg. The reference substance is Resiquimod. At various times after application blood samples of approximately 25 μl are taken from the tail vein. The resulting EDTA plasma is analysed for cytokines using a cytometric bead array.

CT26 tumor = experiment: Application in cancer therapy: CT26 tumor in BALBc mice; assay type: in vivo; settings: i.p.
Description: Female BALBc mice carrying the CT26 tumor type are monitored until tumors are 100-150 mm^3 in volume. Animals are treated via injection i.p. with substances formulated at citrate salts in saline solution. Doses for E 1 are 3, 6 and 12 μmol/kg. At 12 μmol/kg, weight loss of ca. 5% is observed within 24 h. […] In a similar format, Female C57B6 mice carrying the MC38 tumor type co-injected with myofibroblasts (5 fibroblasts: 1 tumor cell-50,000, tumor cells) are monitored until tumors are 100-150 mm^3 in volume. Animals are treated via injection i.p. with either Vehicle or a Rat anti-PD-1 antibody (RMP1-14-CP157) 100 μg, or peritumoral 20 or 50 μg every 96 h. Certain groups receive the antibody alone, or receive in addition, E1 6 μmol/kg or E13 6 μmol/kg, other groups receive E1 and E13 alone at the same dose. Weight loss is similar to the study above and is between 5 and 8% of the starting weight for all treatments. Tumors treated with E1 or E13 alone remain static or decrease in size by up to 30% in size for up to 72 h following treatment. Tumors treated with E1 or E13 in combination with antiPD-1 decline (2 from 8) or are eliminated completely (6 from 8 animals) after the third antibody treatment.

For CCCCc1nc2c(N)nc3ccccc3c2n1CC1CCNCC1 [Example E1, 2-butyl-1-(piperidin-4-ylmethyl)-1H-imidazo[4,5-c]quinolin-4-amine], which “secretion of IFNa relative to TNFa (ratio) compared to the reference” value (IFNa relative to TNFa) is on record?
The value was “higher ratio”.

And the “tumor size following treatment” value (CT26 tumor; CT26 tumors 100-150 mm^3 at start, doses 3, 6 and 12 μmol/kg, for up to 72 h following treatment)?
The value was “remain static in size”.

What about the weight loss (CT26 tumor; female BALBc mice with CT26 tumor, citrate salt in saline, 12 μmol/kg, within 24 h) of the same molecule?
Its weight loss is “ca. 5%”.

Which “secretion of IFNa relative to TNFa (ratio) compared to the reference” value (IFNa relative to TNFa) does the source give for CCCCc1nc2c(N)nc3ccccc3c2n1CCC1CCN(C(=O)CN(C)CC(=O)N(C)[C@H]2C[C@@H](C)O[C@@H](C[C@@H]3[C@@H](C)[C@H](O[C@H]4C[C@@](C)(OC)[C@@H](O)[C@H](C)O4)[C@@H](C)C(=O)O[C@H](CC)[C@@](C)(O)[C@H](O)[C@@H](C)N(C)C[C@H](C)C[C@@]3(C)O)[C@@H]2O)CC1 [Example E13] here?
Its value is “higher ratio”.
